Data from patent US7271165B2, “Rifamycin analogs and uses thereof” (priority 2003, dated 2007).
Values after ≈ are worked out from the molar mass of the structure shown. Where two headings read alike, the source gives them in different places.

Tests used:
S. pneumo. = experiment: MIC assay, S. pneumo.; assay type: cell-based, Streptococcus pneumoniae
H. flu = assay type: cell-based, H. influenza
E. faecalis = experiment: MIC assay, E. faecalis; assay type: cell-based, Enterococcus faecalis
S. aureus = experiment: MIC assay, S. aureus; assay type: cell-based, Staphylococcus aureus
E coli = experiment: MIC assay, E coli; assay type: cell-based

| SMILES | MIC (μg/mL) S. pneumo. (S. pneumo.) [µg/mL] | MIC (μg/mL) H. flu (H. flu; H. flu) [µg/mL] | MIC (μg/mL) E. faecalis (E. faecalis) [µg/mL] | MIC (μg/mL) S. aureus (S. aureus) [µg/mL] | MIC (μg/mL) E coli (E coli) [µg/mL] | MIC (μg/mL) H. flu (H. flu) [µg/mL] |
| --- | --- | --- | --- | --- | --- | --- |
| COC1C=COC2(C)Oc3c(C)c(O)c4c(=O)c(c5oc6cc(N7CCN(C8CCN(C)CC8)CC7)cc(O)c6nc-5c4c3C2=O)NC(=O)C(C)=CC=CC(C)C(O)C(C)C(O)C(C)C(O)C1C (stereo not shown) [Compound 95] | 0.002 (≈ 0.00213 µM) | 1 (≈ 1.06 µM) | 0.5 (≈ 0.532 µM) | 0.015 (≈ 0.016 µM) | >8 |  |
| COC1C=COC2(C)Oc3c(C)c(O)c4c(=O)c(c5oc6cc(N7CCN(CC8CC8)CC7)cc(O)c6nc-5c4c3C2=O)NC(=O)C(C)=CC=CC(C)C(O)C(C)C(O)C(C)C(O)C1C (stereo not shown) [Compound 96] | 0.0005 (≈ 0.000557 µM) | 0.25 (≈ 0.279 µM) | 0.06 (≈ 0.0669 µM) | 0.008 (≈ 0.00892 µM) | 2 (≈ 2.23 µM) |  |
| COC1C=COC2(C)Oc3c(C)c(O)c4c(=O)c(c5oc6cc(N7CC(C)NCC7C)cc(O)c6nc-5c4c3C2=O)NC(=O)C(C)=CC=CC(C)C(O)C(C)C(O)C(C)C(O)C1C (stereo not shown) [Compound 97] | 0.0005 (≈ 0.000574 µM) | 0.25 (≈ 0.287 µM) | 0.12 (≈ 0.138 µM) | 0.004 (≈ 0.00459 µM) | 4 (≈ 4.59 µM) |  |
| COC1C=COC2(C)Oc3c(C)c(O)c4c(=O)c(c5oc6cc(N7CCN(CCO)CC7)cc(O)c6nc-5c4c3C2=O)NC(=O)C(C)=CC=CC(C)C(O)C(C)C(O)C(C)C(O)C1C (stereo not shown) [Compound 98] | 0.0005 (≈ 0.000564 µM) | 0.25 (≈ 0.282 µM) | 0.12 (≈ 0.135 µM) | 0.008 (≈ 0.00902 µM) | 8 (≈ 9.02 µM) |  |
| COC1C=COC2(C)Oc3c(C)c(O)c4c(=O)c(c5oc6cc(N7CCN(c8ccccc8)CC7)cc(O)c6nc-5c4c3C2=O)NC(=O)C(C)=CC=CC(C)C(O)C(C)C(O)C(C)C(O)C1C (stereo not shown) [Compound 99] | 0.001 (≈ 0.00109 µM) | 0.25 (≈ 0.272 µM) | 0.06 (≈ 0.0653 µM) | 0.004 (≈ 0.00435 µM) | 4 (≈ 4.35 µM) |  |
| COC1C=COC2(C)Oc3c(C)c(O)c4c(=O)c(c5oc6cc(N7CCN(CCN(C)C)CC7)cc(O)c6nc-5c4c3C2=O)NC(=O)C(C)=CC=CC(C)C(O)C(C)C(O)C(C)C(O)C1C (stereo not shown) [Compound 100] | 0.008 (≈ 0.00875 µM) | 0.12 (≈ 0.131 µM) | 0.5 (≈ 0.547 µM) | 0.03 (≈ 0.0328 µM) | >8 |  |
| COC1C=COC2(C)Oc3c(C)c(O)c4c(=O)c(c5sc6cc(N7CCN(C)CC7)ccc6nc-5c4c3C2=O)NC(=O)C(C)=CC=CC(C)C(O)C(C)C(O)C(C)C(O)C1C (stereo not shown) [Compound 101] | 0.00012 (≈ 0.00014 µM) | 0.12 (≈ 0.14 µM) | 0.12 (≈ 0.14 µM) | 0.002 (≈ 0.00233 µM) | 2 (≈ 2.33 µM) |  |
| COC1C=COC2(C)Oc3c(C)c(O)c4c(=O)c(c5oc6cc(N7CCNCC7)cc(O)c6nc-5c4c3C2=O)NC(=O)C(C)=CC=CC(C)C(O)C(C)C(O)C(C)C(O)C1C (stereo not shown) [Compound 104] | 0.002 (≈ 0.00237 µM) |  | 0.06 (≈ 0.0712 µM) | 0.008 (≈ 0.00949 µM) | 4 (≈ 4.75 µM) | 0.12 (≈ 0.142 µM) |
| CCOc1c(N2CCN(CC3CC3)CC2)ccc2nc3c4c5c6c(C)c(O)c4c(=O)c(c-3oc12)NC(=O)/C(C)=C\C=C\[C@H](C)[C@H](O)[C@@H](C)[C@@H](O)[C@@H](C)[C@H](O)[C@H](C)[C@@H](OC)/C=C/O[C@@](C)(O6)C5=O [Compound 105] | 0.015 (≈ 0.0162 µM) | 1 (≈ 1.08 µM) | 0.5 (≈ 0.54 µM) | 0.03 (≈ 0.0324 µM) | >8 |  |
| CO[C@H]1/C=C/O[C@@]2(C)Oc3c(C)c(O)c4c(=O)c(c5oc6c(F)c(N7CCN(CC(C)C)CC7)ccc6nc-5c4c3C2=O)NC(=O)/C(C)=C\C=C\[C@H](C)[C@H](O)[C@@H](C)[C@@H](O)[C@@H](C)[C@H](O)[C@@H]1C [Compound 106] | 0.008 (≈ 0.00888 µM) | 0.5 (≈ 0.555 µM) | 0.5 (≈ 0.555 µM) | 0.03 (≈ 0.0333 µM) | 8 (≈ 8.88 µM) |  |
| COC1C=COC2(C)Oc3c(C)c(O)c4c(=O)c(c5oc6cc(N7CCN(C(=O)C8CC8)CC7)cc(O)c6nc-5c4c3C2=O)NC(=O)C(C)=CC=CC(C)C(O)C(C)C(O)C(C)C(O)C1C (stereo not shown) [Compound 107] | 0.004 (≈ 0.00439 µM) | 0.25 (≈ 0.274 µM) | 0.5 (≈ 0.549 µM) | 0.015 (≈ 0.0165 µM) | 8 (≈ 8.78 µM) |  |
| CCc1cc2nc3c4c5c6c(C)c(O)c4c(=O)c(c-3oc2cc1N1CCCCC1)NC(=O)/C(C)=C\C=C\[C@H](C)[C@H](O)[C@@H](C)[C@@H](O)[C@@H](C)[C@H](O)[C@H](C)[C@@H](OC)/C=C/O[C@@](C)(O6)C5=O [Compound 108] | 0.12 (≈ 0.141 µM) | 2 (≈ 2.34 µM) | 4 (≈ 4.68 µM) | 1 (≈ 1.17 µM) | 1 (≈ 1.17 µM) |  |
| CO[C@H]1/C=C/O[C@@]2(C)Oc3c(C)c(O)c4c(=O)c(c5oc6cc(N7CCC(C(N)=O)CC7)cc(O)c6nc-5c4c3C2=O)NC(=O)/C(C)=C\C=C\[C@H](C)[C@H](O)[C@@H](C)[C@@H](O)[C@@H](C)[C@H](O)[C@@H]1C [Compound 109] | 0.002 (≈ 0.00226 µM) | 0.25 (≈ 0.282 µM) | 1 (≈ 1.13 µM) | 0.03 (≈ 0.0339 µM) | >8 |  |
| CCOC(=O)C1CCN(c2cc(O)c3nc4c5c6c7c(C)c(O)c5c(=O)c(c-4oc3c2)NC(=O)/C(C)=C\C=C\[C@H](C)[C@H](O)[C@@H](C)[C@@H](O)[C@@H](C)[C@H](O)[C@H](C)[C@@H](OC)/C=C/O[C@@](C)(O7)C6=O)CC1 [Compound 110] | 0.008 (≈ 0.00875 µM) | 0.12 (≈ 0.131 µM) | 0.5 (≈ 0.547 µM) | 0.004 (≈ 0.00438 µM) | >8 |  |
| COC1C=COC2(C)Oc3c(C)c(O)c4c(=O)c(c5oc6cc(N7CCC(F)CC7)ccc6nc-5c4c3C2=O)NC(=O)C(C)=CC=CC(C)C(O)C(C)C(O)C(C)C(O)C1C (stereo not shown) [Compound 111] | 0.008 (≈ 0.00948 µM) | 0.12 (≈ 0.142 µM) | 0.5 (≈ 0.592 µM) | 0.03 (≈ 0.0355 µM) | 8 (≈ 9.48 µM) |  |
| COC1C=COC2(C)Oc3c(C)c(O)c4c(=O)c(c5oc6cc(N7CCC(F)(F)CC7)ccc6nc-5c4c3C2=O)NC(=O)C(C)=CC=CC(C)C(O)C(C)C(O)C(C)C(O)C1C (stereo not shown) [Compound 112] | 0.015 (≈ 0.0174 µM) | 0.25 (≈ 0.29 µM) | 1 (≈ 1.16 µM) | 0.03 (≈ 0.0348 µM) | >8 |  |
| COC1C=COC2(C)Oc3c(C)c(O)c4c(=O)c(c5oc6cc(N7CC(C)OC(C)C7)cc(O)c6nc-5c4c3C2=O)NC(=O)C(C)=CC=CC(C)C(O)C(C)C(O)C(C)C(O)C1C (stereo not shown) [Compound 114] | 0.002 (≈ 0.00229 µM) | 0.25 (≈ 0.287 µM) | 0.25 (≈ 0.287 µM) | 0.015 (≈ 0.0172 µM) | 8 (≈ 9.17 µM) |  |
